# According to patent US20080113907A1, “Uses Of Galectin-2” (Charite-Universitat-Smedizin Berlin, priority 2004, published 2008):
# Where a SMILES comes first, the peptide text is derived from it. The star is where a group is joined. Cbz = O=C(OCc1ccccc1)*; CH2F = FC*
# Experiments:
# [1] = system: dextran sodium sulfate induced colitis; assay: Prevention of DSS induced acute colitis, disease activity index (DAI); type: in vivo, Balb/c mice; settings: 2 mg/kg i.p.; 10 days after induction; control 6.5 ± 0.3
# Method: Colitis was induced in 8- to 10-week-old, female, Balb/c mice (Jackson Laboratories, Bar Harbor, Me.) by adding 5% DSS (Sigma Chemical Co., St. Louis, Mo.) (Dextran Sodiumsulfate (DSS) to their drinking water and allowing them to drink ad libitum. Groups of mice were treated either with 1 mg/kg BW (body weight) galectin-2 intraperitoneally or PBS 2 h before DSS administration. Mice were weighed and inspected for diarrhea and rectal bleeding. Seven days after induction of colitis by DSS, mice were killed, their entire colon was resected, and its length was measured and weighed. The disease activity index (DAI; i.e., the combined score of weight loss and bleeding) was determined according to a standard scoring system.
# The disease activity index: Loss in bodyweight: 0=no loss; 1=5% to 10%; 2=10% to 15%; 3=15% to 20%; 4 ? 20%.
# Hemoccult: 0=no blood; 2=positive; 4=gross blood.
# In this experiment the DAI ranges from 0 to 8. The higher the DAI score the more severely the animal had been affected by colitis.
# Colitis was induced in 8- to 10-week-old, female, Balb/c mice (Jackson Laboratories, Bar Harbor, Me.) by adding 5% DSS (Sigma Chemical Co., St. Louis, Mo.) (Dextran Sodiumsulfate (DSS) to their drinking water and allowing them to drink ad libitum. Groups of respectively 10 mice were treated either with Galectin-2 subcutaneously (s.c.) or intraperitoneally (i.p.) 2 h before DSS administration. In one trial with 10 mice the doses of Galectin-2 was doubled (administered i.p.) and compared to the treatment of 10 mice with Tacrolimus (FK506) (administered i.p.) in equal concentrations. In parallel a group of 10 mice was treated with 0.9% NaCl instead of Galectin-2 as control. Mice were weighed and inspected for diarrhea and rectal bleeding. 10 days after induction of colitis by DSS, mice were killed, their entire colon was resected, and its length was measured and weighed. The disease activity index (DAI; i.e., the combined score of weight loss and bleeding) was determined according to a standard scoring system.
# The disease activity index: Loss in body weight: 0=no loss; 1=5% to 10%; 2=10% to 15%; 3=15% to 20%; 4 ? 20%.
# PBT [2] = assay: Extent of apoptosis and necrosis (annexin-V, PI, DAPI staining); type: cell-based, human; settings: for effect on galectin-2 induced apoptosis: 50 mM; for effect on galectin-1 induced cell death / effect on galectin-2 induced T cell apoptosis / effect on galectin-7 induced cell death: caspase inhibitor 50 μM
# Method: Apoptosis was determined by monitoring fragmentation of nuclear DNA and access of annexin V to c ell surface phosphatidylserine (PS). To detect fragmentation of nuclear DNA, T cells were cultured in the presence and absence of the respective galectins, with or without blocking antibodies or further activation for 48 h. Thereafter, cells were fixed in 0.2 ml of 37% formaldehyde for 10 min at room temperature. The cells were then treated with 1 ml PBS containing 0.2% Nonidet P-40 (Sigma-Aldrich) for 2 min at room temperature and then rinsed once in PBS. The apoptotic cells were detected by staining of nuclear DNA with 4,6-diamino-2-phenylindole (DAPI) (Calbiochem). DAPI was added at a concentration of 0.2 ng/ml of PBS and cells were incubated at room temperature for 20 min in this solution. Cells were rinsed twice in PBS and the coverslips were maintained cell side down on a microscope slide and analyzed using a Zeiss Axiovert 135M microscope (Carl Zeiss, Oberkochen, Germany). To detect early phases of apoptosis, access to PS was measured. Cells were cultured as described, harvested at the respective time points, stained with FITC-labeled annexin-V and PI and analyzed by flow cytometry using the CellQuest software program (BD Pharmingen). A minimum of 15,000 cells was monitored in each case.
# T cells = assay: Binding of biotinylated Gal-2 to T lymphocytes (flow cytometry); design: species or system human; settings: 50 mM
# Method: To measure Gal-2 binding to T lymphocytes, aliquots of cell suspensions were kept as controls or stimulated for 1, 6, 12, 24, 48, and 72 h with anti-CD3 mAb or PMA and PHA and incubated in the presence of 5 μg/ml biotin-labeled Gal-2. Cells were then harvested, washed and stained with anti-CD3-FITC mAb and APC-labeled streptavidin (Biosource) followed by flow cytofluorometric analysis. Cells cultured in the absence of biotin-labeled Gal-2 and stained with FITC-labeled mouse IgG (BD Pharmingen) or APC-labeled streptavidin served as isotype controls. Each analysis was performed on at least 20,000 events.
# PBT [3] = assay: Analysis of T cell cycling (DNA content, cyclin B1, cell cycle regulators); type: cell-based, human; settings: anti-CD3 activated PBT; dropped from 8% (galectin-1) and 7% (galectin-7)
# Method: For immunoblotting cells were washed in PBS, and lysed in cell lysis buffer (1% Triton-X, 0.5% NP-40, 0.1% SDS, 0.5% sodium deoxycholate, 5 mM EDTA, 50 mM and 50 mM protease- and phosphatase-inhibitor cocktail 2, 1 mM PMSF, 100 μg/ml trypsin-chymotrypsin inhibitor, 100 μg/ml chymostatin in PBS). The concentration of proteins in each lysate was measured using the Bio-Rad protein assay (Bio-Rad Laboratories, Hercules, Calif.). Equivalent amounts of protein (10 μg) were fractionated on a 10-20% Tris-glycine gel and electrotransferred to a nitrocellulose membrane (Novex, San Diego, Calif.). Membranes were blocked with 5% milk in 0.1% Tween 20-PBS (Fisher Scientific, Hanover Park, Ill.), followed by incubation for 60 m in at room temperature with the indicated primary antibody. The membranes were washed six times with 0.1% Tween 20-PBS and then incubated for 1 h with the appropriate horseradish peroxidase-conjugated secondary antibody (Santa Cruz Biotechnology), washed, and incubated with the chemiluminescent substrate (Perkin-Elmer, Carlsbad, Calif.) for 5 minutes. The membranes were then exposed to film (Amersham, Arlington Heights, Ill.).
# Flow cytometry was performed after staining for DNA content, and cyclin B1, essentially as previously described (21). Briefly, cells were washed twice with PBS, adjusted to 1×10^6 cells/sample and fixed in 90% Methanol at −20° C. After fixation, cells were washed twice with PBS, incubated for 45 min at 4° C. with a cyclin B1-FITC conjugated monoclonal antibody. After the final wash, cells were resupended in PBS and 5 μl of RNase (0.6 μg/ml, 30-60 Kunitz Units, Sigma), incubated at 37° C. for 15 min and the chilled on ice. One hundred and twenty five microliters of PI (200 μg/ml) were added prior to analysis by flow cytometry. Each analysis was performed on at least 25.000 events.
# T cells (PBT, LPT) = assay: Adhesion assay to collagen type I and fibronectin; type: cell-based, human; settings: PBT
# Method: 96 well flat-bottom plates were precoated overnight at 4° C. with 12 μg/well fibronectin (Chemicon) in DPBS, 40 μg/well collagen type I (Sigma-Aldrich) in 0.1 M acetic acid, or 3% BSA (Sigma-Aldrich) in DPBS as a control and then washed three times with DPBS. Freshly isolated T cells were fluorescently-labelled with 5 μM calcein-AM (Molecular Probes, Eugene, Oreg.) for 30 min at 37° C. in 5% CO2 at 5×10^6 cells/ml in RPMI. The cells were then washed three times with RPMI containing 5% FCS. Calcein-labelled T cells were resuspended in RPMI and 5×10^5 T cells/well were added to 96-well plates containing purified ECM components or BSA for the indicated times. Saturating concentrations of integrin-blocking mAbs (predetermined by flow cytometry) were preincubated with T cells for 30 min at 37° C. before adding T cells to the wells for the adhesion assay. Nonadherent cells were removed by a standardized washing technique that was developed to minimize background binding, which includes both an orbital and a rocking motion repeated three times with RPMI. Adhesion was quantified with a multiwell fluorescent spectrophotometer (Tecan, Groedig, Austria). For each experimental group the results were expressed as the mean percentage±SD of bound T cells from triplicate wells.
Compound,effect on galectin-1 induced cell death (PBT [2]),effect on galectin-2 induced T cell apoptosis (PBT [2]),effect on galectin-7 induced cell death (PBT [2]),other results
"C=CC[C@@H]1/C=C(\C)C[C@H](C)C[C@H](OC)[C@H]2O[C@@](O)(C(=O)C(=O)N3CCCC[C@H]3C(=O)O[C@H](/C(C)=C/[C@@H]3CC[C@@H](O)[C@H](OC)C3)[C@H](C)[C@@H](O)CC1=O)[C@H](C)C[C@@H]2OC [Tacrolimus, reference compound]",,,,"DAI (disease activity index) [1]: 2.4 ± 0.5,; apoptosis and necrosis of stimulated and unstimulated T cells (PBT [2]; 0, 50, 100 μg/ml, 24 h, with or without anti-CD3): makes no distinction between stimulated and unstimulated T-cells and mainly induces necrosis"
O=P1(N(CCCl)CCCl)NCCCO1 (stereo not drawn) [cyclophosphamide],,,,"effect on galectin-2 induced T cell death (PBT [2]; 0, 10, 1000 nM, data not shown): failed to modulate galectin-2 induced T cell death"
"OC[C@H]1O[C@@H](O[C@H]2[C@H](O)[C@@H](O)C(O)O[C@@H]2CO)[C@H](O)[C@@H](O)[C@H]1O (stereo partly drawn) [lactose, reference compound]",,,,reduction of Gal-2 binding to T cells (T cells; unstimulated T cells): more than 70%; effect on galectin-2 induced apoptosis (PBT [2]): largely inhibited
"OC[C@H]1O[C@@](CO)(O[C@H]2O[C@H](CO)[C@@H](O)[C@H](O)[C@H]2O)[C@@H](O)[C@@H]1O [sucrose, reference compound]",,,,effect on Gal-2 staining intensity of T cells (T cells; not shown): failed to affect the staining intensity; effect on galectin-2 induced apoptosis (PBT [2]): not
"COC(=O)CC[C@H](NC(=O)[C@H](CC(=O)OC)NC(=O)OCc1ccccc1)C(=O)N[C@H](C(=O)N[C@@H](CC(=O)OC)C(=O)CF)C(C)C [zDEVD, Z-Asp-Glu-Val-Asp(OMe)-fluoromethylketone]",impair,significantly inhibited,inhibited,
"COC(=O)CC[C@H](NC(=O)[C@H](CC(C)C)NC(=O)OCc1ccccc1)C(=O)N[C@@H](Cc1cnc[nH]1)C(=O)N[C@@H](CC(=O)OC)C(=O)CF [zLEHD, Z-Leu-Glu(Ome)-His-Asp-(Ome)-Ch2F] (Cbz-LE(OMe)HD(OMe)-CH2F)",blocked,significantly inhibited,not,
"COC(=O)C[C@H](NC(=O)[C@H](C)NC(=O)[C@@H](NC(=O)OCc1ccccc1)C(C)C)C(=O)CF [zVAD, Z-Val-Ala-Asp(OMe)-fluoromethylketone] (Cbz-Val-Ala-Asp(OMe)-CH2F)",impair,significantly inhibited,inhibited,
"COC(=O)C[C@H](NC(=O)[C@H](C)NC(=O)[C@@H](NC(=O)[C@H](Cc1ccc(O)cc1)NC(=O)OCc1ccccc1)C(C)C)C(=O)CF [zYVAD, Z-Tyr-Val-Ala-Asp(Ome)-Ch2F]",,had no effect,blocked,
Z-Ile-Glu-Thr-Asp(OMe)-fluoromethylketone [zIETD],blocked,had no effect,inhibited,
galectin-7: another homodimeric proto-type galectin used for comparison,,,,"PBT apoptosis relative to galectin-2 (PBT [2]; stimulated T cells): induced PBT apoptosis comparable to galectin-2; cyclin B1 expression (PBT [3]): 1%; effect on PBT adhesion to collagen or fibronectin (T cells (PBT, LPT)): failed to significantly alter PBT adhesion to collagen or fibronectin"
